From publication PMC4827351 (Chemical Science, 2015)

Columns and labels:
[1] = tested on: L. monocytogenes ATCC19115; assay: SEM analysis of bacterial agglutination; format: cell-based, Listeria monocytogenes; conditions: 3 µM proHD6 treated with trypsin before incubation (trypsin inactivated with APMSF), 30 min, 50 mM Tris-maleate pH 6.4
Protocol: (§1) Fig. 3 TEM analysis of HD6 self-assembly and SEM analysis of bacterial agglutination. Top row: transmission electron micrographs of 10 mM sodium phosphate pH 7.4 (control), 0.4 μM trypsin (control), 20 μM proHD6 in the absence and presence of 0.4 μM trypsin, and 20 μM HD6. All the samples were incubated at room temperature for 1 h. Scale bar = 100 nm. TEM images obtained using 10 mM Tris-maleate pH 6.4 are presented in Fig. S7. ^† Middle row: scanning electron micrographs of E. coli ATCC 25922 treated with 50 mM Tris-maleate pH 6.4 (control), 0.4 μM APMSF-inactivated trypsin (control), 3 μM proHD6, 3 μM trypsin-cleaved proHD6, or 3 μM HD6. Trypsin-cleaved proHD6 was prepared prior to incubation with the bacteria and the residual enzymatic activity was inhibited by APMSF (Experimental section). Following a 30 min incubation, the bacterial suspensions were centrifuged, fixed, and analyzed by SEM. Scale bar = 20 μm. Bottom row: SEM of L. monocytogenes ATCC19115 treated under the same conditions as in the middle row. Scale bar = 20 μm.
(§2) Bacteria were grown aerobically at 37 °C overnight in LB media. The next morning the strains were subcultured and grown to mid-logarithmic phase in LB media. […]

[2] = Negative-staining TEM of peptide self-assembly; format: physicochemical; conditions: for fibrils (TEM), time course of trypsin treatment: room temperature, 10 mM sodium phosphate pH 7.4
Protocol: as §1
The samples for TEM were prepared by following a literature protocol.[15] For each sample, a 5 μL aliquot of peptide solution (20 μM in 10 mM sodium phosphate pH 7.4 or 10 mM Tris-maleate pH 6.4) was placed onto the carbon-coated surface of a copper grid (400 square mesh, Electron Microscopy Sciences). After 1 min, the grid was washed with a 5 μL aliquot of Milli-Q water, stained with a 5 μL aliquot of 2% uranyl acetate (UA, Electron Microscopy Sciences) in Milli-Q water three times, and air-dried for at least 15 min before imaging. A FEI Technai Spirit Transmission Electron Microscope was employed for all TEM imaging (W.M. Keck Microscopy Facility, Whitehead Institute, Cambridge, MA). TEM images were obtained with at least two independently prepared peptides and representative images are presented.
Figure S7. TEM analysis of trypsin-catalyzed proteolysis of proHD6 in Tris-maleate buffer.
Transmission electron micrographs of 10 mM Tris- maleate pH 6.4 (control), 0.4 µM trypsin (control), 20 µM proHD6 in the absence and presence of 0.4 µM trypsin, and 20 µM HD6. All samples were incubated at room temperature for 1 h. Scale bar = […].
Figure S8. Time course of trypsin-catalyzed proteolysis of proHD6 monitored by TEM.
Transmission electron micrographs of 20 µM proHD6 after treatment with 0.4 µM trypsin at room temperature for the indicated time. All the samples were in 10 mM sodium phosphate […]

E. coli Nissle = assay: SEM analysis of bacterial agglutination; format: cell-based, Escherichia coli; conditions: 3 µM proHD6 treated with trypsin before incubation (trypsin inactivated with APMSF), 30 min, 50 mM Tris-maleate pH 6.4
Protocol: (§3) Bacteria were grown aerobically at 37 °C overnight in LB media. The next morning the strains were subcultured and grown to mid-logarithmic phase in LB media. An aliquot of the bacteria (0.5–2 × 10^7 CFU mL^–1) was removed, sedimented by centrifugation (7000g × 2 min, 4 °C), washed twice with 50 mM Tris-maleate buffer, pH 6.4, and then resuspended in 0.5 mL of the 50 mM Tris-maleate buffer. The bacterial suspension was incubated at room temperature for 30 min with buffer control, 0.4 μM APMSF-inactivated trypsin, 3 μM proHD6, 3 μM trypsin-cleaved proHD6, or 3 μM HD6. Trypsin-cleaved proHD6 was prepared by incubating 30 μM proHD6 with 4 μM trypsin (Affimetrix, Santa Clara, CA) for 1 h at room temperature in 50 mM Tris-maleate buffer, pH 6.4. At the end of incubation, the trypsin was inactivated by addition of APMSF (p-amidinophenylmethylsulfonylfluoride HCl, Millipore, 25 μg mL^–1), and the mixture was added to the bacterial suspension. The APMSF-inactivated trypsin was similarly prepared, except that proHD6 was omitted from the preincubation. After a 30 min incubation, the treated bacterial suspensions were sedimented by centrifugation (7000g × 5 min, 4 °C), and the buffer supernatant was carefully removed. […]

[3] = tested on: Salmonella enterica serovar Typhimurium; assay: SEM analysis of bacterial agglutination; format: cell-based; conditions: 3 µM proHD6 treated with trypsin before incubation (trypsin inactivated with APMSF), 30 min, 50 mM Tris-maleate pH 6.4
Protocol: as §3

E. coli ATCC 25922 = assay: SEM analysis of bacterial agglutination; format: cell-based, Escherichia coli; conditions: 3 µM proHD6 treated with trypsin before incubation (trypsin inactivated with APMSF), 30 min, 50 mM Tris-maleate pH 6.4
Protocol: as §1, §2

EPLQAEDDPLQAKAYEADAQEQRGANDQDFAVSFAEDASSSLRALGSTRAFTCHCRRSCYSTEYSYGTCTVMGINHRFCCL (disulfide (positions not given here)) [proHD6, 81-residue propeptide of human α-defensin 6, recombinant, from His6-SUMO-proHD6]
bacterial agglutination (SEM), trypsin-cleaved [1]: same trypsin-dependent activity
formation of higher-order oligomers (TEM) ([2]; 20 µM peptide, 10 mM sodium phosphate pH 7.4 or 10 mM Tris-maleate pH 6.4, room temperature 1 h, no trypsin): no evidence for the formation of higher-order oligomers
fibrils (TEM), time course of trypsin treatment ([2]; 20 µM proHD6 + 0.4 µM trypsin, 5 min): relatively short fibrils
fibrils (TEM), time course of trypsin treatment ([2]; 20 µM proHD6 + 0.4 µM trypsin, 60 min): closely resembled those of mature HD6
formation of fibrils (TEM) after addition of trypsin ([2]; 20 µM proHD6 + 0.4 µM trypsin, room temperature 1 h, 10 mM sodium phosphate pH 7.4 or 10 mM Tris-maleate pH 6.4): fibril-like features comparable to those observed for the mature HD6 peptide
bacterial agglutination (SEM), trypsin-cleaved (E. coli Nissle): entangled and agglutinated E. coli
bacterial agglutination (SEM), trypsin-cleaved [3]: did not agglutinate S. Typhimurium unless it was treated with trypsin
bacterial agglutination (SEM), trypsin-cleaved (E. coli ATCC 25922): entangled and agglutinated E. coli
